The text below walks through data of patent US20130303788A1, “METHOD OF PRODUCING BIPHENOLIC COMPOUND, NOVEL BIPHENYL COMPOUND AND SYNTHESIS METHOD THEREOF, AND PHARMACEUTICAL COMPOSITION FOR TREATING PARKINSON'S DISEASE” (Tzu Chi University, priority 2012, published 2013).

The subject of assay [1] is excitotoxicity induced by excitatory amino acids. The note with it: Lin Yi-Ruu et al. (2006); cited from earlier work.
Assay [2] has as its system TH (Tyrosine Hydroxylase). In words: TH expression level (TH immunohistochemistry) in 6-OHDA mouse model of PD. Format: in vivo, NMRI mice. Here is the method: The respective NMRI mouse was deeply anaesthetized with thiopental (50 mg/kg, intraperitoneally). The respective NMRI mouse was perfused transcardially with a heparin solution (0.05% heparin in 0.1 M PBS), and was subsequently perfused with 100 mL of ice-cold fixative (4% paraformaldehyde in 0.1 M PBS). The brain of the respective NMRI mouse was removed and was postfixed in the same ice-cold fixative for 12 hours, followed by dehydration in 30% sucrose in 0.1 M PBS. The brain was frozen and was subjected to tissue slicing. Serial coronal sections (a thickness of 20 μm) were cut on a freezing microtome and were placed in PBS. The sections were later processed for free-floating TH or iNOS immunohistochemistry.
The sections were rinsed three times with PBS (30 minutes for each time), were treated with 3% H2O2/10% methanol in PBS for 30 minutes for quenching the endogenous peroxidase activity, and were rinsed three times with PBS. After preincubation with 0.5% normal goat serum (NGS)/0.2% Triton in PBS, the sections were incubated with a primary antibody (anti-TH antibody or anti-iNOS antibody, 1:5000, Novus Biologicals, Inc., Littleton, Colo., USA) in 0.5% NGS/PBS at 4° C. for 16-18 hours. After being rinsed three times with PBS, the sections were incubated with a biotinylated goat anti-rabbit IgG (1:200) in PBS for 1 hour. Subsequently, the sections were rinsed three times with PBS and were stained with 0.05% diaminobenzidine/0.03% H2O2 in PBS for 5 minutes. The respective section was placed on a gelatin-coated slide, dehydrated through ascending concentrations of alcohol, and covered with a slipcover for observation under a light microscope.
The obtained data were subjected to the statistical analysis as described in section 5 of General Procedures. TH expression level in the striatum was determined according to the method as described in section 4 of General Procedures.
TH expression level in the striatum and the substantia nigra (SN), and iNOS expression level in the striatum were determined according to the method as described in section 4 of General Procedures on Day 21 after the injection of 6-OHDA or the vehicle.
In addition, the optical density regarding the lesioned and unlesioned sites in the striatum and SN of the NMRI mice (e.g., the sham operated control, the pathological control, and the NMRI mice treated with product 1) was determined from the obtained photomicrographs illustrating TH expression level via ImageJ software (National Institutes of Health). The relative optical density was calculated using the following formula:
where J=relative optical density • K=optical density of the lesioned site • L=optical density of the unlesioned site

Assay [3] deals with mouse model of PD (6-OHDA unilateral striatal lesion). In words: Beam walking test, incoordination induced by 6-OHDA. Format: in vivo, NMRI mice. Here is the method:
Product 1 was administered intraperitoneally to NMRI mice at a dose of 5 mg/kg. 30 minutes after the administration of product 1, the NMRI mice were subjected to 6-OHDA injection according to the method as described in section 2 of General Procedures.
NMRI mice into which the vehicle was injected, and which were not treated with product 1 before the injection of the vehicle, served as a sham operated control. NMRI mice that were subjected to 6-OHDA injection and that were not treated with product 1 before the 6-OHDA injection served as a pathological control.
The NMRI mice were subjected to the beam walking test as described in the following subsection 3 on Day 1 and Day 7 after the injection of 6-OHDA or the vehicle. The obtained data were subjected to the statistical analysis as described in section 5 of General Procedures.
NMRI mice were subjected to 6-OHDA injection according to the method as described in section 2 of General Procedures. On Day 7 after the 6-OHDA injection, product 1 was administered intraperitoneally to the NMRI mice at a dose of 5 mg/kg respectively for 7 and 14 consecutive days.
NMRI mice into which a vehicle (saline containing 0.02% ascorbic acid) was injected (generally according to the method as described in section 2 of General Procedures, except that 6-OHDA was not injected), and which were not treated with product 1 after the injection of the vehicle, served as a sham operated control. NMRI mice that were subjected to 6-OHDA injection and that were not treated with product 1 after the 6-OHDA injection served as a pathological control.
The NMRI mice were subjected to the beam walking test as described in the following subsection 3 on Day 14 or Day 21 after the injection of 6-OHDA or the vehicle. The obtained data were subjected to the statistical analysis as described in section 5 of General Procedures.
A beam walking test was conducted under proper conditions, e.g., silence and illumination, so as to evaluate coordination of the respective NMRI mouse. The respective NMRI mouse was placed at a starting point of a beam having a height of 50 cm from a supporting surface, equipped with an escape plateform at each end. […] Before the beam walking test, the respective mouse was trained to walk through the beam for 3 days so that the escape latency thereof was less than 20 seconds. The total travel distance was measured.

Turning to `C=CCc1ccc(O)c(-c2ccc(O)c(CC=C)c2)c1` [product 1, 5,3′-Diallyl-biphenyl-2,4′-diol], the “neuroprotective effects via anti-oxidative abilities and antagonist actions against excitotoxicity” value in assay [1] is “able to exert neuroprotective effects”. For the same molecule, in assay [2] (5 mg/kg i.p. for 14 consecutive days after 6-OHDA injection, FIG. 12), the “TH expression level in right (lesioned) striatum vs pathological control, subchronic treatment” value is reported as “significantly higher TH expression level”. Further, the “loss of TH-ir fibers in the striatum, subchronic post-treatment” value in assay [2] (i.p. 14 consecutive days starting Day 7, Day 21 after 6-OHDA, FIGS. 14, 15(A), 16) is given as “significantly alleviated the loss of TH-ir fibers”. Also, the “loss of TH-ir fibers in the substantia nigra (SN), subchronic post-treatment” value in assay [2] (i.p. 14 consecutive days starting Day 7, Day 21 after 6-OHDA, FIGS. 14, 15(B), 16) was “significantly alleviated the loss of TH-ir fibers”. Moreover, the “14-day post-treatment compared to 7-day post-treatment, motor incoordination” value in assay [3] (5 mg/kg i.p.) is on record as “more effectively alleviating the motor incoordination”. Also, in assay [3] (5 mg/kg i.p. 30 minutes before 6-OHDA), the “duration of the effect of the pretreatment on motor incoordination” value is listed as “at least 7 days”. Further, in assay [3] (5 mg/kg i.p. 30 minutes before 6-OHDA, Day 1 and Day 7 after 6-OHDA, FIGS. 18(A), 18(B)), the “motor incoordination (beam walking), pretreatment” value was “significantly alleviated the motor incoordination”. Besides, the “motor incoordination (beam walking), 7-day post-treatment” value in assay [3] (5 mg/kg i.p. for 7 days starting Day 7 after 6-OHDA, tested Day 14, FIG. 19) is on record as “significantly alleviated the motor incoordination”. Further, the “motor incoordination (beam walking), 14-day post-treatment” value in assay [3] (5 mg/kg i.p. for 14 days starting Day 7 after 6-OHDA, tested Day 21, FIG. 19) was “significantly alleviated the motor incoordination”.
